Tests used:
[1] = system: rats; conditions: microinjection/injection in rats; cited from earlier work
[2] = target: T1, σ1 receptors (Homo sapiens, UniProt Q99720); assay: σ1 receptor binding assay; conditions: HEK-293 cell membranes, 10 nM (+)-[3H]-pentazocine, 120 min at 37° C.
T1 construct: endogenous in cells; host or cells: HEK-293 cell membranes
Experimental: Sigma-1 (σ1) and sigma-2 (σ2) receptor binding assays are carried out in membranes from HEK-293 (Human Embryonic Kidney) cells.
Confluent HEK-293 cells are harvested in PBS/5 mM EDTA. They are centrifuged at 2000 rpm for 5 min and then washed two times in PBS. Cells are homogenized in 20 mM Tris-HCL (pH=7.5) containing 5 mM EDTA, 0.5 mM PMSF and 0.5 μg/mL leupeptin using a Dounce homogenizer and sonicated for 5 minutes.
Nuclear debris and intact cells are removed by centrifugation at 3000 rpm for 10 minutes at 4° C. […]
Proteins are determined using the Bio Rad Protein Assay Dye Reagent and the membranes are aliquoted and frozen at −80° C. […]
Total binding is determined by incubating 50 μg of HEK-293 cell membranes with 10 nM (+)−[^3H]-pentazocine (Perkin-Elmer, 35 Ci/mmol) and assay buffer (50 mM Tris-HCl, pH=8.3) in a total volume of 200 μl. Non specific binding is determined in the presence of 10 μM unlabeled pentazocine. […] The filters are washed three times and the membrane-bound radioactivity is determined in a Microbeta scintillation counter. […]
Specific binding is determined by subtraction of non specific binding from total binding. […]

T1 sequence (Q99720 whole entry): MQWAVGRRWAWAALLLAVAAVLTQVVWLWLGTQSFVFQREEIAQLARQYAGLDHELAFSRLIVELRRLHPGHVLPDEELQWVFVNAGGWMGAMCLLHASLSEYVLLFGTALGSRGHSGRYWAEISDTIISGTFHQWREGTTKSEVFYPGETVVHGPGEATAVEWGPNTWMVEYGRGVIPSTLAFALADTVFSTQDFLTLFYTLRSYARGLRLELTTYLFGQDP

Row | SMILES | neck dystonia in rats [1] | IC50 in the σ1 receptor binding assay [2]
1 | Cc1ccccc1NC(=N)Nc1ccccc1C [DTG, 1,3-di-2-tolyl-guanidine] | induced neck dystonia | 
2 | COc1ccc(CCN2CCN(CCCc3ccccc3)CC2)cc1OC [SA-4503, 1-[2-(3,4-dimethoxyphenyl)ethyl]-4-(3-phenylpropyl)piperazine] | had no effect | 
3 | COc1cc(CCC(=O)N2CCN(CCOc3ccc(F)cc3)CC2)cc(OC)c1OC.Cl [Example 35, 1-{4-[2-(4-Fluorophenoxy)Ethyl]Piperazin-1-yl}-3-(3,4,5-Trimethoxy-Phenyl)Propan-1-One Hydrochloride] |  | a little less active
4 | COc1cc(CC(=O)N2CCN(CCOc3ccccc3F)CC2)cc(OC)c1OC.Cl [Example 41, 1-{4-[2-(2-Fluorophenoxy)Ethyl]Piperazin-1-yl}-2-(3,4,5-Trimethoxy-Phenyl)Ethanone Hydrochloride] |  | a little less active

From US8183374B2, “Piperidine and piperazine derivatives” (M's Science Corporation, priority 2006, dated 2012)
